Data: paper PMC7756392, “Syntheses of Thailandepsin B Pseudo‐Natural Products: Access to New Highly Potent HDAC Inhibitors via Late‐Stage Modification” (Chemistry (Weinheim an Der Bergstrasse, Germany), 2020)

Tests used:
human recombinant HDAC6 = molecular target: T1, human recombinant HDAC6 (Homo sapiens, UniProt Q9UBN7); experiment: ZMAL trypsin assay, HDAC6; assay type: biochemical; settings: for inhibition at 10 µM: ZMAL trypsin assay
T1 construct: purchased BPS Bioscience 50006
T1 sequence (Q9UBN7 1-1215): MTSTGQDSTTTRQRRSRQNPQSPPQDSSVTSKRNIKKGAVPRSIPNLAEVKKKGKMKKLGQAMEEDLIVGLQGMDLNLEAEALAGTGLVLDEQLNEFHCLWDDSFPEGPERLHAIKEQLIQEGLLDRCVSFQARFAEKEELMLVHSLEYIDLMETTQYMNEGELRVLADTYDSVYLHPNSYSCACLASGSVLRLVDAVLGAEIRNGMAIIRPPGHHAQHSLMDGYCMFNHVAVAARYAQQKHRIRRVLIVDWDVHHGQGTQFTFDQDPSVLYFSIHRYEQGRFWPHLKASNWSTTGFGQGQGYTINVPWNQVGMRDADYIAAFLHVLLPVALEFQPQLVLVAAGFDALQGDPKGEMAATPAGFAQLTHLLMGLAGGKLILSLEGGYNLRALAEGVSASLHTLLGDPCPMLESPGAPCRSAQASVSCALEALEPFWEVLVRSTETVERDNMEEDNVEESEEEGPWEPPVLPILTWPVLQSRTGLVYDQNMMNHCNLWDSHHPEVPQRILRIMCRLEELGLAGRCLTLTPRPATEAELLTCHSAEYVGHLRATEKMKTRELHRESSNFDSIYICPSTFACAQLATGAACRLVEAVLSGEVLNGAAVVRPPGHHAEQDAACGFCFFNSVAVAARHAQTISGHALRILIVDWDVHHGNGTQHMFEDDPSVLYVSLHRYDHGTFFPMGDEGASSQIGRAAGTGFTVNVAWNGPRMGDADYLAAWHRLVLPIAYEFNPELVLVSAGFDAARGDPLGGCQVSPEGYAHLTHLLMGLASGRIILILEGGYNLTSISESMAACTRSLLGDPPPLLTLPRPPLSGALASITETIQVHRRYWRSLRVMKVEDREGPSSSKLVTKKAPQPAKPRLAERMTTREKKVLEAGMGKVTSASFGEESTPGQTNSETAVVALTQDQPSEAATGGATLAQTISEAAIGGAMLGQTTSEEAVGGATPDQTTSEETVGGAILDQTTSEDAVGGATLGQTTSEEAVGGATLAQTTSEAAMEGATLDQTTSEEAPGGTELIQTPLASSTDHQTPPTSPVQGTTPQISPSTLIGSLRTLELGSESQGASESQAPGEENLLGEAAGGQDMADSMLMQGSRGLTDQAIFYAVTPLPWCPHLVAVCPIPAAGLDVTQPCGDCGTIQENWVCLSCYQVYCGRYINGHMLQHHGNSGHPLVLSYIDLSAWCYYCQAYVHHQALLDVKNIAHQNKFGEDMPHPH
Method: [28] Assays for HDAC1/6 were prepared according to: B. Heltweg , J. Trapp , M. Jung , Methods 2005, 36, 332–337; assays for HDAC8 were prepared according to: J. Senger , J. Melesina , M. Marek , C. Romier , I. Oehme , O. Witt , W. Sippl , M. Jung , J. Med. Chem. 2016, 59, 1545–1555. […]
hHDAC1/6: Activity assays were performed in OptiPlateTM-96 F black microplates (PerkinElmer). Commercial available enzymes (human recombinant HDAC1; BPS Bioscience, catalog no. 50051 and human recombinant HDAC6; BPS Bioscience, catalog no. 50006) were used. Total assay volume of 60 µL contains 42 µl of assay buffer (50 mM Tris -HCl, pH 8.0, 137 mM NaCl, 2.7 mM KCl, 1 mM MgCl2, 0.2 mM TCEP and 1 mg/mL bovine serum albumin), 10 µL of enzyme solution in assay buffer, 3 µL of increasing concentrations of inhibitors in DMSO and 5 μL of the fluorogenic substrate ZMAL (Z -(Ac)Lys-AMC) (126 μM). After incubation (90 min, 37 °C) 60 µL of stop solution, containing 5 μL Trichostatin A (TSA) (33 μM) and 10 μL trypsin (6 mg/mL) in trypsin buffer (Tris-HCl 50 mM, pH 8.0, NaCl 100 mM), were added. […]

HDAC in HL60 cells = experiment: Cellular HDAC activity assay, HL60; assay type: cell-based; settings: read-out: cellular HDAC inhibition IC50
Method: (§1) Cellular trypsin-based activity assay:13 1 x 10^4 Hela cells (50 µL) were seeded in sterile dark 96-well microtiter plates (Perkin Elmer) and incubated overnight at 37 °C and 5% CO2 atmosphere. The next day, the medium was aspirated and the cells were incubated with different inhibitor concentrations or DMSO, diluted in 50 µL m edium without supplements and phenol red. After 2 h incubation time, 50 µL of the HDAC substrate MAL (Boc -Lys(Ac)-AMC) were added to a final concentration of 150 µM and the plate was incubated for 2 h at 37°C and 5%
(§2) CO2. The reaction was stopped by adding 50 µL of stop solution (50 mM Tris, 137 mM NaCl, 1 mM MgCl2, 2.7 mM KCl, 1 µM TSA, 0.1% Igepal, 1 mg/ml Trypsin). After another 20 min of incubation, the fluorescence signal (λex = 390 nm, λem = 460 nm) was measured on a BMG LABTECH POLARstar OPTIMA plate reader (BMG Labtechnologies, Germany). […]

HDAC in HeLa cells = experiment: Cellular HDAC activity assay, HeLa; assay type: cell-based; settings: for IC50: read-out: cellular HDAC inhibition IC50
Method: as §1, §2

inhibition at 10 µM (human recombinant HDAC6) [%]	Compound	HDAC6 inhibition (in words) (human recombinant HDAC6)	IC50 (HDAC in HL60 cells) [µM]	IC50 (HDAC in HeLa cells) [µM]	HDAC inhibition in cells at 5 μM (in words) (HDAC in HeLa cells; 5 μM)
30	CCCC[C@H]1NC(=O)C[C@@H](/C=C/CCSC(C)=O)OC(=O)C[C@H](O)[C@@H]([C@@H](C)CC)NC(=O)[C@@H](C)NC1=O [compound 33]		0.0091 ± 0.0008	0.034 ± 0.0022	
39	CCCC[C@H]1NC(=O)C[C@@H](/C=C/CCC(=O)NO)OC(=O)C[C@H](O)[C@@H]([C@@H](C)CC)NC(=O)[C@@H](C)NC1=O [compound 8]				no HDAC inhibition

Compound	inhibition at 10 µM (human recombinant HDAC6) [%]	HDAC6 inhibition (in words) (human recombinant HDAC6)	IC50 (HDAC in HL60 cells) [µM]	IC50 (HDAC in HeLa cells) [µM]	HDAC inhibition in cells at 5 μM (in words) (HDAC in HeLa cells; 5 μM)
CCCC[C@H]1NC(=O)C[C@@H](/C=C/CCSC(C)=O)OC(=O)C[C@H](O[Si](C)(C)C(C)(C)C)[C@@H]([C@@H](C)CC)NC(=O)[C@@H](C)NC1=O [compound 32]	< 5	not inhibited	66.3 ± 3.5	58.6 ± 1.3	
